# Assay results from article PMC10877564, “Activity of Gut-Derived Nisin-like Lantibiotics against Human Gut Pathogens and Commensals” (ACS Chemical Biology, 2024).
# Positions of bridges follow the written chain, without caps; N, C: chain ends. Non-standard residues stand in square brackets, D forms with d. No end group written: not given here. Abu = CC[C@H](N)C(=O)O; Dhb = C/C=C(\N)C(=O)O; Dha = C=C(N)C(=O)O
# Assays:
# L. monocytogenes 10403s = experiment: MIC assay, anaerobic broth dilution; assay type: cell-based, Listeria monocytogenes; details: BHIS, 37 °C, 48 h, 3-fold serial dilution
# From the text: Next, we set out to test the antimicrobial activities of these purified lantibiotics against a panel of Gram-positive bacteria that are representatives of some of the most prevalent human pathogens: VRE, Methicillin-resistant S. aureus USA300 (MRSA), Methicillin-resistant Staphylococcus epidermidis SK135 (MRSE), Listeria monocytogenes 10403S, and Clostridioides difficile VPI10463. We examined the growth of bacteria in a 96-well plate under a concentration gradient of lantibiotics under anaerobic conditions (Figure S2B). […]
# (§1) For broth cultures, isolates were grown in pre-reduced BHI supplemented with 5 g/L yeast extract (Difco, BD) and 0.1% L-cysteine under anaerobic condition.
# (§2) Minimal Inhibition Concentration (MIC) assay
# (§3) All MIC assays were performed under anaerobic condition. Stationary bacterial culture in BHIS (BHI supplemented with 5 g/L yeast extract and 0.1% L-cysteine) were inoculated 1:100 to wells containing 200 µL BHIS in U-bottom 96-well plates. Lantibiotics were dissolved in DPBS, and concentrations were determined by BCA assay (Pierce) according to the manufacturer’s protocol.
# Lantibiotic stock solutions were added to wells to reach desired final concentration, with 3-fold serial dilution across rows to create concentration gradients. Bacteria-inoculated wells without lantibiotics served as control. […]
# A. hadrus MSK.14.23 = experiment: MIC assay, anaerobic broth dilution; assay type: cell-based, Anaerostipes hadrus; details: BHIS, 37 °C, 48 h, 3-fold serial dilution
# From the text: (§4) Antibiotic treatment may result in collateral damage to commensal bacteria in the human microbiome, leading to dysbiosis and susceptibility to various diseases.[44] How lantibiotics impact Gram-positive commensals from the human gut has remained unclear. Therefore, we performed antimicrobial activity tests of these lantibiotics against selected Gram-positive human gut commensals, most of which belong to the Lachnospiraceae family, one of the most abundant bacterial families in the human gut.[27] In general, human gut commensals were more susceptible to the set of investigated lantibiotics compared to pathogens (Figure 3). […]
# (§5) Isolation of human gut commensal bacteria
# (§6) Isolation and growth of commensal bacteria was done as previously reported.5 Briefly, fresh donor fecal samples were transferred into an anaerobic chamber (Coy Labs) within 1 h of collection. The anaerobic chamber was maintained using a gas mix consisting of 5% hydrogen, 5% carbon dioxide and 90% nitrogen, and hydrogen was maintained at ~3.0% using an anaerobic gas infuser. […]
# (§7) All MIC assays were performed under anaerobic condition. […] Lantibiotics were dissolved in DPBS, and concentrations were determined by BCA assay (Pierce) according to the manufacturer’s protocol. […]
# B. obeum MSK.18.40 = experiment: MIC assay, anaerobic broth dilution; assay type: cell-based, Blautia obeum; details: BHIS, 37 °C, 48 h, 3-fold serial dilution
# From the text: as §4, §5, §6, §7
# [1] = Liposome permeabilization assay, liposomes with lipid II; assay type: biochemical; details: 375 nM lantibiotic; DOPC with 0.1 mol% lipid II, 50 µM phospholipid; pyranine fluorescence, 30 min, room temperature; three replicates; Figure S7B
# Procedure: To further investigate the mechanisms of action of these nisin-like lantibiotics, we performed liposome permeabilization assays using liposomes with or without lipid II (Figure S7).
# Liposome Permeabilization Assay
# To prepare pyranine encapsulated liposomes, DOPC (25 mg/mL in CHCl3, purchased from Avanti) was deposited into a vial and mixed with lipid II (dissolved in 2:1 CHCl3: MeOH, prepared chemoenzymatically).6 The solvent was removed using a stream of N2 leaving a thin film. Residual solvent was removed by storing it overnight in a vacuum desiccator. The film was rehydrated in buffer (5 mM Tricine, 5 mM MES, 5 mM NaCl, 1 mM pyranine pH = 6.0) and suspended with vortexing. The suspension was subjected to freeze-thaw three times before extrusion through a […] polycarbonate filter (21 passes). Excess pyranine was removed by passing the liposome solution through a Sephadex G-50 column previously equilibrated with buffer (5 mM Tricine, 5 mM MES, 5 mM NaCl, pH = 6.0). The eluted liposome solution containing the highest concentration of encapsulated pyranine (as determined visually with a UV lamp) was immediately placed on ice. Phospholipid concentration was determined by NMR as described previously.7 To measure liposome permeabilization, to a 96 well black polystyrene plate was added buffer (5 mM Tricine, 5 mM MES, 5 mM NaCl, pH = 8.0; 97 µL) and liposome solution (3 µL; 50 µM phospholipid concentration during assay). The wells were allowed to equilibrate for 8 min at room temperature then antibiotic was added. The antibiotic concentration in each well was 375 nM.
# Pyranine fluorescence was monitored for 30 min then Triton X-100 was added to a final concentration of 0.1% and pyranine fluorescence was monitored for an additional 5 min. The pyranine fluorescence signal was max-min normalized. […]
# Fig. S7 Liposome permeabilization assays of nisin-like lantibiotics. (A) Scheme of liposome […]
# low fluorescence. Fluorescence increases upon liposome permeabilization and pH increase . (B) Fraction of liposomes permeabilized by lantibiotics (375 nM). Liposomes were composed of DOPC with or without 0.1 mol% lipid II. Error bars represent the standard of deviation of three […]
# (1 picture or pasted object on this page, not shown here)
# C. comes MSK.11.23 = experiment: MIC assay, anaerobic broth dilution; assay type: cell-based, Coprococcus comes
# From the text: as §4, §5
# Isolation and growth of commensal bacteria was done as previously reported.5 Briefly, fresh donor fecal samples were transferred into an anaerobic chamber (Coy Labs) within 1 h of collection. The anaerobic chamber was maintained using a gas mix consisting of 5% hydrogen, 5% carbon dioxide and 90% nitrogen, and hydrogen was maintained at ~3.0% using an anaerobic gas infuser. Fecal samples were resuspended in pre-reduced PBS and plated on Columbia blood agar or brain-heart infusion (BHI – Difco, BD) agar plates in three serial 10-fold dilutions and incubated at 37 °C for 48 – 96 h. Isolated colonies were re-streaked for purity onto Columbia blood agar and frozen in pre-reduced 10% glycerol in PBS.
# as §1, §2, §3
# Lantibiotic stock solutions were added to wells to reach desired final concentration, with 3-fold serial dilution across rows to create concentration gradients. Bacteria-inoculated wells without lantibiotics served as control. Plates were incubated at 37 °C for 48 h before being taken out of the anaerobic chamber for centrifugation. Plates were imaged with an iBright 1500 imager […]
# pellets than those without lantibiotics were identified as MIC.
substance,measurement,setting,value
"nisin A (I[Dhb]AI[Dha]LC[Abu]PGCK[Abu]GALMGCNMK[Abu]A[Abu]CHCSIHV[Dha]K; thioether 8-11, 13-19, 23-26, 25-28, 3-7; UniProt P13068 24-57, looked up) [prototypical class I lantibiotic produced by L. lactis, food preservative; commercial nisin A]",nisin A MIC,L. monocytogenes 10403s,2.67 µM
same,nisin A MIC,A. hadrus MSK.14.23,0.0110 µM
same,nisin A MIC,B. obeum MSK.18.40,0.0110 µM
same,permeabilization of lipid II-containing liposomes (in words),[1],strongly induced permeabilization
same,nisin A MIC,"C. comes MSK.11.23; C. comes MSK.11.23, anaerobic, BHIS, 37 °C, 48 h, 3-fold serial dilution",0.296 µM
same,sensitivity of C. comes MSK.11.23 to the lantibiotic (in words),"C. comes MSK.11.23; Figure 3, anaerobic MIC assay",relatively resistant
